Tests used:
Test in all cases: relative viability (nuclei count vs DMSO), 5 days (fraction); higher = more cells survive
201T = test system: 201T
Outline: (§1)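 Nuclei were stained with Hoechst during a one-step fixation (final 0.05% Triton X-100, 1% formaldehyde, 1 ug/ml Hoechst) carried out 5 days after dosing, then counted on 4× images. The cells, lung cancer lines in 1536-well plates, had been dosed by pin tool the day after seeding with one drug alone or a fixed anchor-drug dose plus five library-drug doses (not always all listed) in √10 steps. Relative viability is the nuclei count in treated wells divided by that in vehicle wells, and each value is the median of duplicate plates.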

BEN = test system: BEN
Outline: as §1

CAL-12T = test system: CAL-12T
Outline: as §1

HCC-44 = test system: HCC-44
Outline: as §1

HCC-827 = test system: HCC-827
Outline: as §1

HOP-62 = test system: HOP-62
Outline: as §1

LCLC-103H = test system: LCLC-103H
Outline: as §1

LCLC-97TM1 = test system: LCLC-97TM1
Outline: as §1

LXF-289 = test system: LXF-289
Outline: as §1

NCI-H1395 = test system: NCI-H1395
Outline: as §1

NCI-H1437 = test system: NCI-H1437
Outline: as §1

NCI-H1650 = test system: NCI-H1650
Outline: as §1

NCI-H1793 = test system: NCI-H1793
Outline: as §1

NCI-H1944 = test system: NCI-H1944
Outline: as §1

NCI-H2087 = test system: NCI-H2087
Outline: as §1

NCI-H2228 = test system: NCI-H2228
Outline: as §1

NCI-H2405 = test system: NCI-H2405
Outline: as §1

NCI-H3122 = test system: NCI-H3122
Outline: as §1

NCI-H322M = test system: NCI-H322M
Outline: as §1

NCI-H647 = test system: NCI-H647
Outline: as §1

NCI-H727 = test system: NCI-H727
Outline: as §1

RERF-LC-KJ = test system: RERF-LC-KJ
Outline: as §1

SK-LU-1 = test system: SK-LU-1
Outline: as §1

`NC(=O)Nc1cc(-c2cccc(F)c2)sc1C(=O)N[C@H]1CCCNC1` [AZD7762] + CCNC(=O)c1noc(-c2cc(C(C)C)c(O)cc2O)c1-c1ccc(CN2CCOCC2)cc1 [Luminespib] (partner 0.01 µM) gave a relative viability (201T; first compound 0.01 µM) of 1.11, a relative viability (201T; first compound 0.03162 µM) of 1.07 and a relative viability (201T; first compound 0.1 µM) of 1.06. For the same molecule, the relative viability (201T; first compound 0.3162 µM) was 1.14, the relative viability (201T; first compound 1 µM) was 0.913 and the relative viability (BEN; first compound 0.01 µM) was 0.16. For the same molecule, the relative viability (BEN; first compound 0.03162 µM) was 0.665, the relative viability (BEN; first compound 0.1 µM) was 0.188 and the relative viability (BEN; first compound 0.3162 µM) was 0.43. For the same molecule, the relative viability (BEN; first compound 1 µM) was 0.533, the relative viability (CAL-12T; first compound 0.01 µM) was 0.331 and the relative viability (CAL-12T; first compound 0.03162 µM) was 0.397. The relative viability (CAL-12T; first compound 0.1 µM) was 0.17, the relative viability (CAL-12T; first compound 0.3162 µM) was 0.147 and the relative viability (CAL-12T; first compound 1 µM) was 0.223. The relative viability (HCC-44; first compound 0.01 µM) was 1.14, the relative viability (HCC-44; first compound 0.03162 µM) was 0.997 and the relative viability (HCC-44; first compound 0.1 µM) was 0.918. The relative viability (HCC-44; first compound 0.3162 µM) was 0.96, the relative viability (HCC-44; first compound 1 µM) was 0.423 and the relative viability (HCC-827; first compound 0.01 µM) was 0.598. The relative viability (HCC-827; first compound 0.03162 µM) was 0.677, the relative viability (HCC-827; first compound 0.1 µM) was 0.604 and the relative viability (HCC-827; first compound 0.3162 µM) was 0.459. For the same molecule, the relative viability (HCC-827; first compound 1 µM) was 0.213, the relative viability (HOP-62; first compound 0.01 µM) was 0.983 and the relative viability (HOP-62; first compound 0.03162 µM) was 0.931. The relative viability (HOP-62; first compound 0.1 µM) was 0.606, the relative viability (HOP-62; first compound 0.3162 µM) was 0.902 and the relative viability (HOP-62; first compound 1 µM) was 0.65. It also gave a relative viability (LCLC-103H; first compound 0.01 µM) of 1.06, a relative viability (LCLC-103H; first compound 0.03162 µM) of 0.932 and a relative viability (LCLC-103H; first compound 0.1 µM) of 1.01. For the same molecule, the relative viability (LCLC-103H; first compound 0.3162 µM) was 0.943, the relative viability (LCLC-103H; first compound 1 µM) was 0.953 and the relative viability (LCLC-97TM1; first compound 0.01 µM) was 0.876. For the same molecule, the relative viability (LCLC-97TM1; first compound 0.03162 µM) was 0.706, the relative viability (LCLC-97TM1; first compound 0.1 µM) was 0.738 and the relative viability (LCLC-97TM1; first compound 0.3162 µM) was 0.771. It also gave a relative viability (LCLC-97TM1; first compound 1 µM) of 0.786, a relative viability (LXF-289; first compound 0.01 µM) of 0.673 and a relative viability (LXF-289; first compound 0.03162 µM) of 0.601. For the same molecule, the relative viability (LXF-289; first compound 0.1 µM) was 0.753, the relative viability (LXF-289; first compound 0.3162 µM) was 0.724 and the relative viability (LXF-289; first compound 1 µM) was 0.456. The relative viability (NCI-H1395; first compound 0.01 µM) was 0.699, the relative viability (NCI-H1395; first compound 0.03162 µM) was 0.788 and the relative viability (NCI-H1395; first compound 0.1 µM) was 0.888. The relative viability (NCI-H1395; first compound 0.3162 µM) was 0.468, the relative viability (NCI-H1395; first compound 1 µM) was 0.341 and the relative viability (NCI-H1437; first compound 0.01 µM) was 1.17. The relative viability (NCI-H1437; first compound 0.03162 µM) was 1.18, the relative viability (NCI-H1437; first compound 0.1 µM) was 1.2 and the relative viability (NCI-H1437; first compound 0.3162 µM) was 1.13. It also gave a relative viability (NCI-H1437; first compound 1 µM) of 0.79, a relative viability (NCI-H1650; first compound 0.01 µM) of 0.191 and a relative viability (NCI-H1650; first compound 0.03162 µM) of 0.175. For the same molecule, the relative viability (NCI-H1650; first compound 0.1 µM) was 0.22, the relative viability (NCI-H1650; first compound 0.3162 µM) was 0.186 and the relative viability (NCI-H1650; first compound 1 µM) was 0.192. The relative viability (NCI-H1793; first compound 0.01 µM) was 0.175, the relative viability (NCI-H1793; first compound 0.03162 µM) was 0.195 and the relative viability (NCI-H1793; first compound 0.1 µM) was 0.163. It also gave a relative viability (NCI-H1793; first compound 0.3162 µM) of 0.403, a relative viability (NCI-H1793; first compound 1 µM) of 0.179 and a relative viability (NCI-H1944; first compound 0.01 µM) of 0.85. It also gave a relative viability (NCI-H1944; first compound 0.03162 µM) of 0.838, a relative viability (NCI-H1944; first compound 0.1 µM) of 0.871 and a relative viability (NCI-H1944; first compound 0.3162 µM) of 0.82. The relative viability (NCI-H1944; first compound 1 µM) was 0.689, the relative viability (NCI-H2087; first compound 0.01 µM) was 0.203 and the relative viability (NCI-H2087; first compound 0.03162 µM) was 0.145. It also gave a relative viability (NCI-H2087; first compound 0.1 µM) of 0.237, a relative viability (NCI-H2087; first compound 0.3162 µM) of 0.173 and a relative viability (NCI-H2087; first compound 1 µM) of 0.162. The relative viability (NCI-H2228; first compound 0.01 µM) was 0.139, the relative viability (NCI-H2228; first compound 0.03162 µM) was 0.162 and the relative viability (NCI-H2228; first compound 0.1 µM) was 0.165. It also gave a relative viability (NCI-H2228; first compound 0.3162 µM) of 0.133, a relative viability (NCI-H2228; first compound 1 µM) of 0.125 and a relative viability (NCI-H2405; first compound 0.01 µM) of 0.823. For the same molecule, the relative viability (NCI-H2405; first compound 0.03162 µM) was 0.707, the relative viability (NCI-H2405; first compound 0.1 µM) was 0.784 and the relative viability (NCI-H2405; first compound 0.3162 µM) was 0.672. It also gave a relative viability (NCI-H2405; first compound 1 µM) of 0.33, a relative viability (NCI-H3122; first compound 0.01 µM) of 0.0859 and a relative viability (NCI-H3122; first compound 0.03162 µM) of 0.0843. For the same molecule, the relative viability (NCI-H3122; first compound 0.1 µM) was 0.109, the relative viability (NCI-H3122; first compound 0.3162 µM) was 0.0927 and the relative viability (NCI-H3122; first compound 1 µM) was 0.0813. For the same molecule, the relative viability (NCI-H322M; first compound 0.01 µM) was 0.851, the relative viability (NCI-H322M; first compound 0.03162 µM) was 0.827 and the relative viability (NCI-H322M; first compound 0.1 µM) was 0.357. It also gave a relative viability (NCI-H322M; first compound 0.3162 µM) of 0.248, a relative viability (NCI-H322M; first compound 1 µM) of 0.245 and a relative viability (NCI-H647; first compound 0.01 µM) of 0.118. It also gave a relative viability (NCI-H647; first compound 0.03162 µM) of 0.163, a relative viability (NCI-H647; first compound 0.1 µM) of 0.0996 and a relative viability (NCI-H647; first compound 0.3162 µM) of 0.119. The relative viability (NCI-H647; first compound 1 µM) was 0.101, the relative viability (NCI-H727; first compound 0.01 µM) was 0.24 and the relative viability (NCI-H727; first compound 0.03162 µM) was 0.499. It also gave a relative viability (NCI-H727; first compound 0.1 µM) of 0.291, a relative viability (NCI-H727; first compound 0.3162 µM) of 0.325 and a relative viability (NCI-H727; first compound 1 µM) of 0.279. It also gave a relative viability (RERF-LC-KJ; first compound 0.01 µM) of 1.41, a relative viability (RERF-LC-KJ; first compound 0.03162 µM) of 1.38 and a relative viability (RERF-LC-KJ; first compound 0.1 µM) of 1.21. It also gave a relative viability (RERF-LC-KJ; first compound 0.3162 µM) of 1.2, a relative viability (RERF-LC-KJ; first compound 1 µM) of 1.02 and a relative viability (SK-LU-1; first compound 0.01 µM) of 0.193. The relative viability (SK-LU-1; first compound 0.03162 µM) was 0.209, the relative viability (SK-LU-1; first compound 0.1 µM) was 0.192 and the relative viability (SK-LU-1; first compound 0.3162 µM) was 0.206. For the same molecule, the relative viability (SK-LU-1; first compound 1 µM) was 0.123.

— the supplement of paper PMC10307832
